Assays:
JNK = JNK (Homo sapiens, UniProt P45983); experiment: LanthaScreen kinase activity assay; type: biochemical
GST-JNK1 = GST-JNK1 (Homo sapiens, UniProt P45983); experiment: pepJIP1 DELFIA displacement assay; type: binding
p38α = p38α (Homo sapiens, UniProt Q16539); experiment: Selectivity profile: p38α kinase; type: biochemical
Akt kinase = experiment: Selectivity profile: Akt kinase; type: biochemical; conditions: for activity against Akt kinase: no significant inhibition at 100 μM
Furin = Furin (Homo sapiens, UniProt P09958); experiment: Selectivity profile: furin protease; type: biochemical
Sequence of Furin (P09958 108-794, species assumed): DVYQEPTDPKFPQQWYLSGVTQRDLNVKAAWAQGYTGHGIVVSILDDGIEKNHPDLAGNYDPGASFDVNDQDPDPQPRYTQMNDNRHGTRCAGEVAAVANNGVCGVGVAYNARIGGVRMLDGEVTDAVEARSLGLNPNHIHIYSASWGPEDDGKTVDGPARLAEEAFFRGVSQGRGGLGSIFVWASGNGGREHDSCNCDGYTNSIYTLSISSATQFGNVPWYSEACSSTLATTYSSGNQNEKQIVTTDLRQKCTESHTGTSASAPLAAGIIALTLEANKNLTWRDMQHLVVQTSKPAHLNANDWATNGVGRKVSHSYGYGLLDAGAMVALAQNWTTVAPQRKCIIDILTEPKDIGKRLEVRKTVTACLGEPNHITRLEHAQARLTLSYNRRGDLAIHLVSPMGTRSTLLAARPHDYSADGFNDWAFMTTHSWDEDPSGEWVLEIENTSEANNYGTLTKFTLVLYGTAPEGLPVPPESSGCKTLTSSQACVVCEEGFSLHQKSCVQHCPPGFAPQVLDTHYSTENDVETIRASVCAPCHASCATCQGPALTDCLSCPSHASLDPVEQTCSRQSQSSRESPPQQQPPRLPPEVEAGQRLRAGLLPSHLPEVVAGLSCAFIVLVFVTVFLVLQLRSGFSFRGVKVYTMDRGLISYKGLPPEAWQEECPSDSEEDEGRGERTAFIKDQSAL

lethal factor (LF) = lethal factor (LF) (Bacillus anthracis, UniProt P15917); experiment: biochemical; type: biochemical
Sequence of lethal factor (LF) (P15917 34-809 limits assumed): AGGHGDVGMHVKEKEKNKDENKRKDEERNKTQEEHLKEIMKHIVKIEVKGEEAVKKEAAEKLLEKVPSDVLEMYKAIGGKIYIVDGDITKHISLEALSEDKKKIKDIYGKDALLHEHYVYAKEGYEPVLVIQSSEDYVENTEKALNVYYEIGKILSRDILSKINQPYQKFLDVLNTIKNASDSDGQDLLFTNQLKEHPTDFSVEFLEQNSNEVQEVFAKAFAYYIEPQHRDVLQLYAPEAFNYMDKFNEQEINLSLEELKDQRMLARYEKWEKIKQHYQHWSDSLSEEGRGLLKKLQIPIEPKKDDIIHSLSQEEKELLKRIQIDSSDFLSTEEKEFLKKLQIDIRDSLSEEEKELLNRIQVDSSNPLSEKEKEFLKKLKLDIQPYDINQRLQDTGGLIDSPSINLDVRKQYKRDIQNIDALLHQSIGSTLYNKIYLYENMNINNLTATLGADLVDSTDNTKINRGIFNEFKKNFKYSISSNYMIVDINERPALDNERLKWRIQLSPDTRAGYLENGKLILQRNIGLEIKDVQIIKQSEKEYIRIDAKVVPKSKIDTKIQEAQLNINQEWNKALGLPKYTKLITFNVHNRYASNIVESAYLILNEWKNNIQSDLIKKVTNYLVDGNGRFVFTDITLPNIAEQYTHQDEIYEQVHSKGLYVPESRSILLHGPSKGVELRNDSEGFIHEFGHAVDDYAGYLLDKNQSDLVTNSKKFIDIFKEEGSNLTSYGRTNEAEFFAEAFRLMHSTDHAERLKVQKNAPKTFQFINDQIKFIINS

Sequence of GST-JNK1 (P45983 whole entry): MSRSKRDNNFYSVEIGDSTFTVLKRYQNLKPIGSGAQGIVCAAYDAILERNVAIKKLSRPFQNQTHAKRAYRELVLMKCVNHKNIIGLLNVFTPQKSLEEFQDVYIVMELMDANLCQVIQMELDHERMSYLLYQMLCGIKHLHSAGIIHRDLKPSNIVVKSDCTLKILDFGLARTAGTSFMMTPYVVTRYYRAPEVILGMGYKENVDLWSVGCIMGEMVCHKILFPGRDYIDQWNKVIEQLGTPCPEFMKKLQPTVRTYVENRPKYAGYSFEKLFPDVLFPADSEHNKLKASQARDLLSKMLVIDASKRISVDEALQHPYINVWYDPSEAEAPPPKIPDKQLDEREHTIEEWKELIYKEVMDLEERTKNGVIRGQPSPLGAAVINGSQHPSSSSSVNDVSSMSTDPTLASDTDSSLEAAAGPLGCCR
Sequence of JNK (P45983 whole entry): as above
Sequence of p38α (Q16539 whole entry): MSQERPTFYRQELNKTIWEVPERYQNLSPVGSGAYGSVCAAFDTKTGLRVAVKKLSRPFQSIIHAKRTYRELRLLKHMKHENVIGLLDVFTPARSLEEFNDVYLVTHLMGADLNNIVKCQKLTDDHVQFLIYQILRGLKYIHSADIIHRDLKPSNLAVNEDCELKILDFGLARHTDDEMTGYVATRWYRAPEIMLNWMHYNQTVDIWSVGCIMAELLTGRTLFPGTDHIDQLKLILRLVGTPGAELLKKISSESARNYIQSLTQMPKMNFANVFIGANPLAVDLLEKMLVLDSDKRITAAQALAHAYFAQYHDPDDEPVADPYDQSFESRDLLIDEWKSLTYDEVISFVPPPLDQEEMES

Structure (SMILES): Nc1ncnc2[nH]c(SCc3ccc(C(=O)O)cc3)nc12 [BI-87C7]
- activity in kinase assay / JNK inhibition (JNK): none of these were good JNK inhibitors
- IC50 (GST-JNK1): > 100 µM

Structure (SMILES): Nc1ncnc2nc(Sc3ncc([N+](=O)[O-])s3)[nH]c12 [BI-87C10]
- activity in kinase assay / JNK inhibition (JNK): none of these were good JNK inhibitors
- IC50 (GST-JNK1): < 1 µM

Structure (SMILES): O=C(O)c1ccc(CSc2nc3ccccc3[nH]2)cc1 [BI-87D4]
- IC50 (GST-JNK1): > 100 µM

Structure (SMILES): COc1ccc2sc(Sc3ncc([N+](=O)[O-])s3)nc2c1 [BI-87D11]
- times less active against p38α (vs JNK) (p38α): at least 50 times
- Akt, inhibition at 100 μM (Akt kinase): 5% inhibition at 100 μM
- activity against Akt kinase (Akt kinase): inactive
- activity against furin (Furin): inactive
- IC50 (lethal factor (LF)): > 100 µM
- activity against lethal factor (lethal factor (LF)): inactive

Structure (SMILES): O=[N+]([O-])c1cnc(Sc2nc3cc(Cl)ccc3s2)s1 [BI-87F2]
- activity in kinase assay / JNK inhibition (JNK): inactive

Structure (SMILES): Cn1c(Sc2ncc([N+](=O)[O-])s2)nc2ccccc21 [BI-87F7]
- activity in kinase assay / JNK inhibition (JNK): no activity

Structure (SMILES): O=[N+]([O-])c1cnc(Sc2nc3ccc(Cl)cc3s2)s1 [BI-87F8]
- activity in kinase assay / JNK inhibition (JNK): inactive

Structure (SMILES): Cn1c(Sc2nc3ccc(Cl)cc3s2)nnc1-c1cccs1 [BI-87F11]
- IC50 (GST-JNK1): > 100 µM

Structure (SMILES): Cn1c(Sc2nc3ccc(Cl)cc3s2)nnc1-c1ccc2ncccc2c1 [BI-87F12]
- IC50 (GST-JNK1): > 100 µM

Structure (SMILES): CCOc1ccc2nc(Sc3ncc([N+](=O)[O-])s3)sc2c1 [BI-87G2]
- activity in kinase assay / JNK inhibition (JNK): inactive
- IC50 (GST-JNK1): > 100 µM

Structure (SMILES): O=[N+]([O-])c1cnc(Sc2nc3ccccc3s2)s1 [BI-87G3, 2-(5-nitrothiazol-2-ylthio)benzo[d]thiazole]
- times less active against p38α (vs JNK) (p38α): at least 50 times
- Akt, inhibition at 100 μM (Akt kinase): 2% inhibition at 100 μM
- activity against Akt kinase (Akt kinase): inactive
- activity against furin (Furin): inactive
- IC50 (lethal factor (LF)): > 100 µM
- activity against lethal factor (lethal factor (LF)): inactive

Structure (SMILES): Cn1c(Sc2nc3ccc(Cl)cc3s2)nnc1-c1ccc(Cl)cc1Cl [BI-87G12]
- IC50 (GST-JNK1): > 100 µM

Structure (SMILES): O=[N+]([O-])c1cnc(Sc2nc3cc(S(=O)(=O)O)ccc3[nH]2)s1 [BI-87H1]
- IC50 (GST-JNK1): > 100 µM

From PMC2828351 (Bioorganic & medicinal chemistry, 2009)
